Data on nine molecules can be found in patent US20120264827A1, “SULFANYLAMIDE DERIVATIVES, USES THEREOF AND COMPOSITIONS COMPRISING THEM” (YISSUM RESEARCH DEVELOPMENT COMPANY OF THE HEBREW …, priority 2009, published 2012).

The subject of assay [1] is subcutaneous metrazol (pentylenetetrazol) seizure. Nature of the assay: Subcutaneous metrazol seizure threshold test (scMet), mice, intraperitoneal.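 Also: adult male CF no. 1 albino mice weighing 18-25 g, dosed intraperitoneally with compounds suspended in 0.5% methylcellulose.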 It counts as in vivo. The following applies: ip.
The test system of assay [2] is maximal electroshock seizure (MES). Description: Maximal electroshock seizure test (MES), mice, intraperitoneal.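 Also: adult male CF no. 1 albino mice of 18–25 g, given compound intraperitoneally as a 0.5% methylcellulose suspension.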 It counts as in vivo. The following applies: ip.
Assay [3] has the same test system. Description: Maximal electroshock seizure test (MES), rats, oral.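 Also: adult male Sprague-Dawley rats received test compounds by mouth as a suspension in 0.5% methylcellulose.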 The following applies: Rattus norvegicus, po, read-out: Anti-MES activity (number of animals protected/number of animals tested). On the technique in general: In the maximal electroshock model the usual endpoint is tonic extension of the hind limbs.
Experimental: The tested compounds were suspended in 0.5% methylcellulose and administered (a) intraperitioneally (ip) to adult male CF no. 1 albino mice (18-25 g) in volume of 0.01 mL/g body weight and (b) orally to adult male Sprague-Dawley albino rats (100-150 g) in volume of 0.04 mL per 10 g of body weight.
The TD50 was determined by varying the dose of the tested compounds until four points were established between the dose level that induced no signs of minimal motor impairment in any of the animals and the dose at which all the animals were considered impaired. […] The PIs were calculated by dividing the TD50 by the ED50.
Setting [4] is: 30 mg/kg, 0.5 h after administration.
The mark [5] stands for this setting: 30 mg/kg, 4 h after administration.
Where [6] appears, read: 100 mg/kg, 0.5 h after administration.
Where [7] appears, read: 100 mg/kg, 4 h after administration.
The mark [8] stands for this setting: 300 mg/kg, 0.5 h after administration.
[9] abbreviates: 300 mg/kg, 4 h after administration.

Where two headings read alike, the source gives them in different places.

On to `CCC(C)CC(=O)Nc1ccc(S(N)(=O)=O)cc1` (centres unmarked) [Compound 24, 3-Methyl-N-(4-sulfamoyl-phenyl)-pentanamide], for which the “scMet (number of animals protected/number of animals tested)” value in assay [1] (setting [4]), in assay [1] (setting [5]), in assay [1] (setting [6]), in assay [1] (setting [7]), in assay [1] (setting [8]) and in assay [1] (setting [9]) was 0/1 0/1 0/1 throughout. Moreover, the “MES (number of animals protected/number of animals tested)” value in assay [2] (setting [4]) was 0/1; in assay [2] (setting [5]), 0/1; in assay [2] (setting [6]) it was 0/3; in assay [2] (setting [7]), 0/3; in assay [2] (setting [8]), 0/1; in assay [2] (setting [9]), 0/1.

Turning to `CCCC(C(=O)Nc1ccc(S(N)(=O)=O)cc1)C(C)(C)C` (centres unmarked) [Compound 22, 2-tert-Butyl-N-(4-sulfamoyl-phenyl)-pentanamide], the “scMet (number of animals protected/number of animals tested)” value in assay [1] (setting [4]), in assay [1] (setting [5]), in assay [1] (setting [6]), in assay [1] (setting [7]), in assay [1] (setting [8]) and in assay [1] (setting [9]) was 0/1 0/1 0/1 in each case. The “MES (number of animals protected/number of animals tested)” value is recorded as 0/1 in assay [2] (setting [4]); 0/1 in assay [2] (setting [5]); 0/3 in assay [2] (setting [6]); 0/3 in assay [2] (setting [7]); 0/1 in assay [2] (setting [8]); 0/1 in assay [2] (setting [9]).

On to `CCC(C(=O)Nc1ccc(S(N)(=O)=O)cc1)C(C)(C)C` (centres unmarked) [Compound 12, 2-Ethyl-3,3-dimethyl-N-(4-sulfamoyl-phenyl)-butyramide], for which the “scMet (number of animals protected/number of animals tested)” value in assay [1] (setting [4]), in assay [1] (setting [5]), in assay [1] (setting [6]), in assay [1] (setting [7]), in assay [1] (setting [8]) and in assay [1] (setting [9]) was 0/1 0/1 0/1 in each case. For the same molecule, the “MES (number of animals protected/number of animals tested)” value in assay [2] (setting [4]) is 0/1; in assay [2] (setting [5]), 0/1; in assay [2] (setting [6]) it was 0/3; in assay [2] (setting [7]), 1/3; in assay [2] (setting [8]), 0/1; in assay [2] (setting [9]), 1/1.

For the molecule `CCCC(CC)C(=O)Nc1ccc(S(N)(=O)=O)cc1` (centres unmarked) [Compound 17, 2-Ethyl-N-(4-sulfamoyl-phenyl)-pentanamide], the “scMet (number of animals protected/number of animals tested)” value in assay [1] (setting [4]), in assay [1] (setting [5]), in assay [1] (setting [6]), in assay [1] (setting [7]), in assay [1] (setting [8]) and in assay [1] (setting [9]) was 0/1 0/1 0/1 throughout. For the same molecule, the “MES (number of animals protected/number of animals tested)” value in assay [2] (setting [4]) is listed as 0/1; in assay [2] (setting [5]), 0/1; in assay [2] (setting [6]) it was 0/3; in assay [2] (setting [7]), 1/3; in assay [2] (setting [8]), 0/1; in assay [2] (setting [9]), 1/1.

`CCC(CC)C(=O)NCCc1ccc(S(N)(=O)=O)cc1` [Compound 29, 2-Ethyl-N-[2-(4-sulfamoyl-phenyl)-ethyl]-butyramide]: the “scMet (number of animals protected/number of animals tested)” value in assay [1] (setting [4]), in assay [1] (setting [5]), in assay [1] (setting [6]), in assay [1] (setting [7]), in assay [1] (setting [8]) and in assay [1] (setting [9]) was 0/1 0/1 0/1 each time. For the same molecule, the responders at 30 mg/kg was 50% in assay [3] (0.5 h); 75% in assay [3] (1 h); 25% in assay [3] (2 h); 25% in assay [3] (4 h); 25% in assay [3] ([…]). Also, the “MES (number of animals protected/number of animals tested)” value in assay [2] (setting [4]) is reported as 0/1; in assay [2] (setting [5]), 1/1; in assay [2] (setting [6]), 0/3; in assay [2] (setting [7]), 1/3; in assay [2] (setting [8]) it was 0/1; in assay [2] (setting [9]) it was 1/1.

In the case of `CC(C)C(C(=O)Nc1ccc(S(N)(=O)=O)cc1)C(C)(C)C` (centres unmarked) [Compound 14, 2-Isopropyl-3,3-dimethyl-N-(4-sulfamoyl-phenyl)-butyramide], the “scMet (number of animals protected/number of animals tested)” value in assay [1] (setting [4]), in assay [1] (setting [5]), in assay [1] (setting [6]), in assay [1] (setting [7]), in assay [1] (setting [8]) and in assay [1] (setting [9]) was 0/1 0/1 0/1 in each case. The “MES (number of animals protected/number of animals tested)” value in assay [2] (setting [4]) is 0/1; in assay [2] (setting [5]), 0/1; in assay [2] (setting [6]) it was 0/3; in assay [2] (setting [7]), 3/3; in assay [2] (setting [8]) it was 0/1; in assay [2] (setting [9]), 1/1.

Turning to `CC(C)(C)CC(=O)Nc1ccc(S(N)(=O)=O)cc1` [Compound 15, 3,3-Dimethyl-N-(4-sulfamoyl-phenyl)-butyramide], the “scMet (number of animals protected/number of animals tested)” value in assay [1] (setting [4]), in assay [1] (setting [5]), in assay [1] (setting [6]), in assay [1] (setting [7]), in assay [1] (setting [8]) and in assay [1] (setting [9]) was 0/1 0/1 0/1 in each case. For the same molecule, the responders at 30 mg/kg in assay [3] (0.5 h) is 25%; in assay [3] (1 h) it was 75%; in assay [3] (2 h) it was 100%; in assay [3] (4 h), 100%; in assay [3] ([…]), 75%. Also, the “MES (number of animals protected/number of animals tested)” value is 0/1 in assay [2] (setting [4]); 0/1 in assay [2] (setting [5]); 5/7 in assay [2] (setting [6]); 1/3 in assay [2] (setting [7]); 4/5 in assay [2] (setting [8]); 1/1 in assay [2] (setting [9]).

Turning to `CCC(C)C(=O)Nc1ccc(S(N)(=O)=O)cc1` (centres unmarked) [Compound 10, 2-Methyl-N-(4-sulfamoyl-phenyl)-butyramide], the “scMet (number of animals protected/number of animals tested)” value in assay [1] (setting [4]), in assay [1] (setting [5]), in assay [1] (setting [6]), in assay [1] (setting [7]), in assay [1] (setting [8]) and in assay [1] (setting [9]) was 0/1 0/1 0/1 each time. Moreover, the responders at 30 mg/kg in assay [3] (0.5 h) is 50%; in assay [3] (1 h), 100%; in assay [3] (2 h), 100%; in assay [3] (4 h) it was 100%; in assay [3] ([…]), 50%. The “MES (number of animals protected/number of animals tested)” value in assay [2] (setting [4]) was 1/1; in assay [2] (setting [5]), 1/1; in assay [2] (setting [6]), 3/3; in assay [2] (setting [7]), 3/3; in assay [2] (setting [8]), 1/1; in assay [2] (setting [9]), 1/1.

For `CC(C)C(C(=O)Nc1ccc(S(N)(=O)=O)cc1)C(C)C` [Compound 13, 2-Isopropyl-3-methyl-N-(4-sulfamoyl-phenyl)-butyramide], the “scMet (number of animals protected/number of animals tested)” value in assay [1] (setting [4]), in assay [1] (setting [5]), in assay [1] (setting [6]), in assay [1] (setting [7]), in assay [1] (setting [8]) and in assay [1] (setting [9]) was 0/1 0/1 0/1 in each case. For the same molecule, the responders at 30 mg/kg in assay [3] (0.5 h) is 0%; in assay [3] (1 h) it was 0%; in assay [3] (2 h) it was 0%; in assay [3] (4 h), 50%; in assay [3] ([…]), 0%. In addition, the “MES (number of animals protected/number of animals tested)” value in assay [2] (setting [4]) is reported as 0/1; in assay [2] (setting [5]), 0/1; in assay [2] (setting [6]), 0/3; in assay [2] (setting [7]), 0/3; in assay [2] (setting [8]) it was 0/1; in assay [2] (setting [9]), 0/1.
